Laboratory results: ChEMBL document CHEMBL3044925, “Synthesis of piperazino and morpholino derivatives of aryloxypropane with potential analgesic and possible antimigraine activities” (Med Chem Res, 2011)

Key:
Mus musculus [1] = experiment: Neurotoxicity against Mus musculus MFI (mouse) assessed as tail erection at 90 mg/kg, ip; format: toxicity, organism-based; design: dose 90 mg/kg, route intraperitoneal; conditions: in vivo
Mus musculus [2] = experiment: Neurotoxicity against Mus musculus MFI (mouse) assessed as eye protrusion at 90 mg/kg, ip; format: toxicity, organism-based; design: dose 90 mg/kg, route intraperitoneal; conditions: in vivo
Mus musculus [3] = experiment: Neurotoxicity against Mus musculus MFI (mouse) assessed as excitation at 90 mg/kg, ip; format: toxicity, organism-based; design: dose 90 mg/kg, route intraperitoneal; conditions: in vivo
Mus musculus [4] = experiment: Neurotoxicity against Mus musculus MFI (mouse) assessed as hair erection at 90 mg/kg, ip; format: toxicity, organism-based; design: dose 90 mg/kg, route intraperitoneal; conditions: in vivo
Mus musculus [5] = experiment: Neurotoxicity against Mus musculus MFI (mouse) assessed as skeletal muscle incoordination at 90 mg/kg, ip; format: toxicity, organism-based, Muscle tissue; design: dose 90 mg/kg, route intraperitoneal; conditions: in vivo
Mus musculus [6] = experiment: Neurotoxicity against Mus musculus MFI (mouse) assessed as muscle twitching at 90 mg/kg, ip; format: toxicity, organism-based, Muscle tissue; design: dose 90 mg/kg, route intraperitoneal; conditions: in vivo
Mus musculus [7] = experiment: Neurotoxicity against Mus musculus MFI (mouse) assessed as effect on respiration at 90 mg/kg, ip; format: toxicity, organism-based; design: dose 90 mg/kg, route intraperitoneal; conditions: in vivo
Mus musculus [8] = experiment: Neurotoxicity against Mus musculus MFI (mouse) assessed as irritability at 90 mg/kg, ip; format: toxicity, organism-based; design: dose 90 mg/kg, route intraperitoneal; conditions: in vivo
Mus musculus [9] = experiment: […] activity in Mus musculus MFI (mouse) assessed as inhibition of PBQ-induced writhing at 90 mg/kg, ip administered 1.5 hr prior to PBQ-challenge measured after 10 min relative to aspirin; format: functional; conditions: route intraperitoneal
Mus musculus [10] = experiment: Neurotoxicity against Mus musculus MFI (mouse) assessed as tremors at 90 mg/kg, ip; format: toxicity, organism-based; design: dose 90 mg/kg, route intraperitoneal; conditions: in vivo
Mus musculus [11] = experiment: Neurotoxicity against Mus musculus MFI (mouse) assessed as epilepsy at 90 mg/kg, ip; format: toxicity, organism-based; design: dose 90 mg/kg, route intraperitoneal; conditions: in vivo
Mus musculus [12] = experiment: […] activity in ip dosed Mus musculus MFI (mouse) assessed as inhibition of PBQ-induced writhing administered 1.5 hr prior to PBQ-challenge measured after 10 min; format: functional; conditions: read-out: MED
Mus musculus [13] = experiment: Neurotoxicity against Mus musculus MFI (mouse) assessed as irritability at 50 mg/kg, ip; format: toxicity, organism-based; design: dose 50 mg/kg, route intraperitoneal; conditions: in vivo
Mus musculus [14] = experiment: Neurotoxicity against Mus musculus MFI (mouse) assessed as effect on respiration at 50 mg/kg, ip; format: toxicity, organism-based; design: dose 50 mg/kg, route intraperitoneal; conditions: in vivo
Mus musculus [15] = experiment: Neurotoxicity against Mus musculus MFI (mouse) assessed as tail erection at 135 mg/kg, ip; format: toxicity, organism-based; design: dose 135 mg/kg, route intraperitoneal; conditions: in vivo
Mus musculus [16] = experiment: […] activity in Mus musculus MFI (mouse) assessed as inhibition of PBQ-induced writhing at 135 mg/kg, ip administered 1.5 hr prior to PBQ-challenge measured after 10 min relative to aspirin; format: functional; conditions: route intraperitoneal
Mus musculus [17] = experiment: Neurotoxicity against Mus musculus MFI (mouse) assessed as tremors at 135 mg/kg, ip; format: toxicity, organism-based; design: dose 135 mg/kg, route intraperitoneal; conditions: in vivo
Mus musculus [18] = experiment: Neurotoxicity against Mus musculus MFI (mouse) assessed as irritability at 135 mg/kg, ip; format: toxicity, organism-based; design: dose 135 mg/kg, route intraperitoneal; conditions: in vivo
Mus musculus [19] = experiment: Neurotoxicity against Mus musculus MFI (mouse) assessed as muscle twitching at 135 mg/kg, ip; format: toxicity, organism-based, Muscle tissue; design: dose 135 mg/kg, route intraperitoneal; conditions: in vivo
Mus musculus [20] = experiment: Neurotoxicity against Mus musculus MFI (mouse) assessed as muscle twitching at 50 mg/kg, ip; format: toxicity, organism-based, Muscle tissue; design: dose 50 mg/kg, route intraperitoneal; conditions: in vivo
Mus musculus [21] = experiment: Neurotoxicity against Mus musculus MFI (mouse) assessed as tail erection at 50 mg/kg, ip; format: toxicity, organism-based; design: dose 50 mg/kg, route intraperitoneal; conditions: in vivo
Mus musculus [22] = experiment: […] activity in Mus musculus MFI (mouse) assessed as inhibition of PBQ-induced writhing at 50 mg/kg, ip administered 1.5 hr prior to PBQ-challenge measured after 10 min relative to aspirin; format: functional; conditions: route intraperitoneal
Mus musculus [23] = experiment: Neurotoxicity against Mus musculus MFI (mouse) assessed as tremors at 50 mg/kg, ip; format: toxicity, organism-based; design: dose 50 mg/kg, route intraperitoneal; conditions: in vivo
Mus musculus [24] = experiment: Neurotoxicity against Mus musculus MFI (mouse) assessed as hair erection at 50 mg/kg, ip; format: toxicity, organism-based; design: dose 50 mg/kg, route intraperitoneal; conditions: in vivo
Mus musculus [25] = experiment: Neurotoxicity against Mus musculus MFI (mouse) assessed as eye protrusion at 50 mg/kg, ip; format: toxicity, organism-based; design: dose 50 mg/kg, route intraperitoneal; conditions: in vivo
Mus musculus [26] = experiment: Neurotoxicity in ip dosed Mus musculus MFI (mouse); format: toxicity, organism-based; conditions: in vivo
Mus musculus [27] = experiment: Neurotoxicity against Mus musculus MFI (mouse) assessed as hair erection at 135 mg/kg, ip; format: toxicity, organism-based; design: dose 135 mg/kg, route intraperitoneal; conditions: in vivo
Mus musculus [28] = experiment: Neurotoxicity against Mus musculus MFI (mouse) assessed as excitation at 50 mg/kg, ip; format: toxicity, organism-based; design: dose 50 mg/kg, route intraperitoneal; conditions: in vivo
Mus musculus [29] = experiment: Neurotoxicity against Mus musculus MFI (mouse) assessed as effect on respiration at 135 mg/kg, ip; format: toxicity, organism-based; design: dose 135 mg/kg, route intraperitoneal; conditions: in vivo
Mus musculus [30] = experiment: Neurotoxicity against Mus musculus MFI (mouse) assessed as epilepsy at 50 mg/kg, ip; format: toxicity, organism-based; design: dose 50 mg/kg, route intraperitoneal; conditions: in vivo
Mus musculus [31] = experiment: Neurotoxicity against Mus musculus MFI (mouse) assessed as eye protrusion at 135 mg/kg, ip; format: toxicity, organism-based; design: dose 135 mg/kg, route intraperitoneal; conditions: in vivo
Mus musculus [32] = experiment: Neurotoxicity against Mus musculus MFI (mouse) assessed as skeletal muscle incoordination at 50 mg/kg, ip; format: toxicity, organism-based, Muscle tissue; design: dose 50 mg/kg, route intraperitoneal; conditions: in vivo
Mus musculus [33] = experiment: Neurotoxicity against Mus musculus MFI (mouse) assessed as skeletal muscle incoordination at 135 mg/kg, ip; format: toxicity, organism-based, Muscle tissue; design: dose 135 mg/kg, route intraperitoneal; conditions: in vivo
Mus musculus [34] = experiment: Neurotoxicity against Mus musculus MFI (mouse) assessed as excitation at 135 mg/kg, ip; format: toxicity, organism-based; design: dose 135 mg/kg, route intraperitoneal; conditions: in vivo
Mus musculus [35] = experiment: Neurotoxicity against Mus musculus MFI (mouse) assessed as epilepsy at 135 mg/kg, ip; format: toxicity, organism-based; design: dose 135 mg/kg, route intraperitoneal; conditions: in vivo

With `CC(CN1CCN(C)CC1)Oc1cccc(Cl)c1Cl.O=C(O)C(=O)O` (racemic) the Activity (Mus musculus [1]) was “Toxic”, the Activity (Mus musculus [2]) was “Toxic” and the Activity (Mus musculus [3]) was “Toxic”. The Activity (Mus musculus [4]) was “Toxic”, the Activity (Mus musculus [5]) was “Toxic” and the Activity (Mus musculus [6]) was “Toxic”. For the same molecule, the Activity (Mus musculus [7]) was “Toxic”, the Activity (Mus musculus [8]) was “Toxic” and the inhibition in vivo at 90 mg/kg (Mus musculus [9]) was 85%. For the same molecule, the Activity (Mus musculus [10]) was “Toxic” and the Activity (Mus musculus [11]) was “Toxic”.

For `CC(COc1cc(Cl)ccc1Cl)N1CCN(C)CC1.O=C(O)C(=O)O` (racemic), the Activity (Mus musculus [1]) was “Toxic”, the minimal effective dose (Mus musculus [12]) was 60 mg/kg and the Activity (Mus musculus [2]) was “Toxic”. The Activity (Mus musculus [3]) was “Toxic”, the Activity (Mus musculus [13]) was “Toxic” and the Activity (Mus musculus [4]) was “Toxic”. For the same molecule, the Activity (Mus musculus [14]) was “Toxic”, the Activity (Mus musculus [15]) was “Toxic” and the Activity (Mus musculus [5]) was “Toxic”. For the same molecule, the inhibition in vivo at 135 mg/kg (Mus musculus [16]) was 100%, the Activity (Mus musculus [17]) was “Toxic” and the Activity (Mus musculus [18]) was “Toxic”. For the same molecule, the Activity (Mus musculus [6]) was “Toxic”, the Activity (Mus musculus [7]) was “Toxic” and the Activity (Mus musculus [8]) was “Toxic”. The Activity (Mus musculus [19]) was “Toxic”, the Activity (Mus musculus [20]) was “Toxic” and the Activity (Mus musculus [21]) was “Toxic”. For the same molecule, the inhibition in vivo at 50 mg/kg (Mus musculus [22]) was 50%, the inhibition in vivo at 90 mg/kg (Mus musculus [9]) was 62.5% and the Activity (Mus musculus [23]) was “Toxic”. For the same molecule, the Activity (Mus musculus [24]) was “Toxic”, the Activity (Mus musculus [10]) was “Toxic” and the Activity (Mus musculus [25]) was “Toxic”. The MTC (Mus musculus [26]) was 90 mg/kg, the Activity (Mus musculus [27]) was “Toxic” and the Activity (Mus musculus [28]) was “Toxic”. The Activity (Mus musculus [29]) was “Toxic”, the Activity (Mus musculus [30]) was “Toxic” and the Activity (Mus musculus [11]) was “Toxic”. The Activity (Mus musculus [31]) was “Toxic”, the Activity (Mus musculus [32]) was “Toxic” and the Activity (Mus musculus [33]) was “Toxic”. For the same molecule, the Activity (Mus musculus [34]) was “Toxic” and the Activity (Mus musculus [35]) was “Toxic”.
